Data as given in patent US11173162B2, “Bicyclic heterocycles as FGFR4 inhibitors” (Incyte Corporation, priority 2015, dated 2021).

Molecular target: FGFR4 (Homo sapiens (Human), UniProt P22455)
Assay: FGFR Enzymatic Assay (FRET peptide phosphorylation), FGFR4
Assay type: biochemical
Conditions: IC50 ratio showing FGFR4 selectivity; Table 2, pre-incubated for 4 hours
Protocol: (§1) The inhibitor potency of the exemplified compounds was measured in an enzyme assay that measures peptide phosphorylation using FRET measurements to detect product formation. Inhibitors were serially diluted in DMSO and a volume of 0.5 μL was transferred to the wells of a 384-well plate.
The enzymes were purchased from Millipore or Invitrogen.
(§2) GraphPad prism3 was used to analyze the data.

Sequence of FGFR4 (P22455 22-802): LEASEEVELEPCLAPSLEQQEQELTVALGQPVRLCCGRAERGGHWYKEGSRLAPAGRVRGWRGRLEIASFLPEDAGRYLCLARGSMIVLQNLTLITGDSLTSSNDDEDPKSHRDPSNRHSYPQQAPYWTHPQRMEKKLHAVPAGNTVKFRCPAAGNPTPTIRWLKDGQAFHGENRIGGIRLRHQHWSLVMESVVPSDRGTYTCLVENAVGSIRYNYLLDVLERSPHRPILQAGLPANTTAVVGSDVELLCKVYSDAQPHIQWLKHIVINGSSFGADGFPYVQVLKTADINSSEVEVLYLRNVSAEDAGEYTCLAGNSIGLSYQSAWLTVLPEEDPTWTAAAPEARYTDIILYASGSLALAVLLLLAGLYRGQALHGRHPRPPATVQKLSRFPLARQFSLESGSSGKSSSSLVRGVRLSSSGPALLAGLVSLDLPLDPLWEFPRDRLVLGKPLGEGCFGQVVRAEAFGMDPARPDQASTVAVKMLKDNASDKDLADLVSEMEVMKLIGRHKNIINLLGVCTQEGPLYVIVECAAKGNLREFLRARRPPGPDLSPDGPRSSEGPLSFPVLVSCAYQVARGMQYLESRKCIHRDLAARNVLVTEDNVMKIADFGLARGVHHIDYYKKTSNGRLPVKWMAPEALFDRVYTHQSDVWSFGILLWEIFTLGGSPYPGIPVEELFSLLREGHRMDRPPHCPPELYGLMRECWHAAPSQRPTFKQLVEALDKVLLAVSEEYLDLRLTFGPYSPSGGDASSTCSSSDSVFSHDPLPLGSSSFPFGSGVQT

SMILES | FGFR1/FGFR4 | FGFR2/FGFR4 | FGFR3/FGFR4
COc1cc(OC)c(F)c(N2Cc3cnc(-c4nn(CC5CCOCC5)cc4C#N)cc3C3(CC3)C2=O)c1F [Example 173, 3-(2′-(2,6-difluoro-3,5-dimethoxyphenyl)-3′-oxo-2′,3′-dihydro-1′H-spiro[cyclopropane-1,4′-[2,7]naphthyridine]-6′-yl)-1-((tetrahydro-2H-pyran-4-yl)methyl)-1H-pyrazole-4-carbonitrile] | >100 | >100 | >50
COc1cc(OC)c(F)c(N2Cc3cnc(-c4nn(C)cc4C#N)cc3C3(CC3)C2=O)c1F [Example 172, 3-(2′-(2,6-difluoro-3,5-dimethoxyphenyl)-3′-oxo-2′,3′-dihydro-1′H-spiro[cyclopropane-1,4′-[2,7]naphthyridine]-6′-yl)-1-methyl-1H-pyrazole-4-carbonitrile] | >50 | >25 | >10
COc1cc(OC)c(F)c(N2Cc3cnc(-c4cc(N)c(F)cc4C)cc3C3(CC3)C2=O)c1F [Example 2, 6′-(5-amino-4-fluoro-2-methylphenyl)-2′-(2,6-difluoro-3,5-dimethoxyphenyl)-1′H-spiro[cyclopropane-1,4′-[2,7]naphthyridin]-3′(2′H)-one] | >10 | >10 | >10
COc1cc(OC)c(F)c(N2Cc3cnc(-c4[nH]ncc4C#N)cc3C3(CC3)C2=O)c1F [Example 171, 5-(2′-(2,6-difluoro-3,5-dimethoxyphenyl)-3′-oxo-2′,3′-dihydro-1′H-spiro[cyclopropane-1,4′-[2,7]naphthyridine]-6′-yl)-1H-pyrazole-4-carbonitrile] | >10 | >10 | >10
COc1cc(OC)c(F)c(N2Cc3cnc(-c4cc(N)ccc4C)cc3C3(CC3)C2=O)c1F [Example 1, 6′-(5-amino-2-methylphenyl)-2′-(2,6-difluoro-3,5-dimethoxyphenyl)-1^1H-spiro[cyclopropane-1,4′-[2,7]naphthyridin]-3′(2′H)-one] | >25 | >25 | >25
COc1cc(OC)c(F)c(N2Cc3cnc(-c4cc(N)ccc4C#N)cc3C3(CC3)C2=O)c1F [Example 3, 4-amino-2-(2′-(2,6-difluoro-3,5-dimethoxyphenyl)-3′-oxo-2′,3′-dihydro-1′H-spiro[cyclopropane-1,4′-[2,7]naphthyridine]-6′-yl)benzonitrile] | >25 | >25 | >10

Same assay, conditions: ratio of IC50 data showing FGFR4 selectivity; Table 4, pre-incubated for 5 to 10 minutes

SMILES | FGFR1/FGFR4 | FGFR2/FGFR4 | FGFR3/FGFR4
COc1cc(OC)c(F)c(N2Cc3cnc(-c4cc(N)c(F)cc4C)cc3C3(CC3)C2=O)c1F [Example 2, 6′-(5-amino-4-fluoro-2-methylphenyl)-2′-(2,6-difluoro-3,5-dimethoxyphenyl)-1′H-spiro[cyclopropane-1,4′-[2,7]naphthyridin]-3′(2′H)-one] | >10 | >10 | >10
COc1cc(OC)c(F)c(N2Cc3cnc(-c4cc(N)ccc4C)cc3C3(CC3)C2=O)c1F [Example 1, 6′-(5-amino-2-methylphenyl)-2′-(2,6-difluoro-3,5-dimethoxyphenyl)-1^1H-spiro[cyclopropane-1,4′-[2,7]naphthyridin]-3′(2′H)-one] | >25 | >25 | >50
COc1cc(OC)c(F)c(N2Cc3cnc(-c4cc(N)ccc4C#N)cc3C3(CC3)C2=O)c1F [Example 3, 4-amino-2-(2′-(2,6-difluoro-3,5-dimethoxyphenyl)-3′-oxo-2′,3′-dihydro-1′H-spiro[cyclopropane-1,4′-[2,7]naphthyridine]-6′-yl)benzonitrile] | >25 | >25 | >25

Tested on: FGFR3 enzyme
Assay: FGFR Enzymatic Assay (FRET peptide phosphorylation), FGFR3
Assay type: biochemical
Conditions: IC50 ratio showing FGFR3 selectivity; Table 2A, pre-incubated for 4 hours
Protocol: as §1, §2

SMILES | FGFR1/FGFR3 | FGFR4/FGFR3
CNC(=O)c1ccc(CN2C(=O)N(c3c(F)c(OC)cc(OC)c3F)Cc3cnc(-c4cn(C)nc4C)cc32)cc1 [Example 62, 4-((3-(2,6-difluoro-3,5-dimethoxyphenyl)-7-(1,3-dimethyl-1H-pyrazol-4-yl)-2-oxo-3,4-dihydropyrido[4,3-d]pyrimidin-1(2H)-yl)methyl)-N-methylbenzamide] | >10 | >5
COc1cc(OC)c(F)c(N2Cc3cnc(-c4cn(C)nc4C)cc3N(c3ccc4ncsc4c3)C2=O)c1F [Example 41, 1-(1,3-benzothiazol-6-yl)-3-(2,6-difluoro-3,5-dimethoxyphenyl)-7-(1,3-dimethyl-1H-pyrazol-4-yl)-3,4-dihydropyrido[4,3-d]pyrimidin-2(1H)-one] | >1 | >5
CNC(=O)c1ccc(-c2cc3c(cn2)CN(c2c(F)c(OC)cc(OC)c2F)C(=O)C32CC2)cn1 [Example 18, 5-(2′-(2,6-difluoro-3,5-dimethoxyphenyl)-3′-oxo-2′,3′-dihydro-1′H-spiro[cyclopropane-1,4′-[2,7]naphthyridine]-6′-yl)-N-methylpicolinamide] | >5 | 
COc1cc(OC)c(F)c(N2Cc3cnc(-c4cnn(CCN5CCC(OC)CC5)c4)cc3C3(CC3)C2=O)c1F [Example 152, 2′-(2,6-difluoro-3,5-dimethoxyphenyl)-6′-(1-(2-(4-methoxypiperidin-1-yl)ethyl)-1H-pyrazol-4-yl)-1′H-spiro[cyclopropane-1,4′-[2,7]naphthyridin]-3′(2′H)-one] | >5 | >3
CCN1C(=O)N(c2c(F)c(OC)cc(OC)c2F)Cc2cnc(-c3cnn(C)c3)cc21 [Example 169, 3-(2,6-difluoro-3,5-dimethoxyphenyl)-1-ethyl-7-(1-methyl-1H-pyrazol-4-yl)-3,4-dihydropyrido[4,3-d]pyrimidin-2(1H)-one] | >3 | >5
COc1cc(OC)c(F)c(N2Cc3cnc(-c4cn(CCC5CCNCC5)nc4C)cc3C3(CC3)C2=O)c1F [Example 165, 2′-(2,6-difluoro-3,5-dimethoxyphenyl)-6′-(3-methyl-1-(2-(piperidin-4-yl)ethyl)-1H-pyrazol-4-yl)-1′H-spiro[cyclopropane-1,4′-[2,7]naphthyridin]-3′(2′H)-one] | >3 | >3
COc1cc(OC)c(F)c(N2Cc3cnc(-c4cn(CCC#N)nc4C)cc3C3(CC3)C2=O)c1F [Example 156, 3-(4-(2′-(2,6-difluoro-3,5-dimethoxyphenyl)-3′-oxo-2′,3′-dihydro-1′H-spiro[cyclopropane-1,4′-[2,7]naphthyridine]-6′-yl)-3-methyl-1H-pyrazol-1-yl)propanenitrile] | >5 | >1
COc1cc(OC)c(F)c(N2Cc3cnc(-c4cnn(C)c4)cc3C3(CC3)C2=O)c1F [Example 186, 2′-(2,6-difluoro-3,5-dimethoxyphenyl)-6′-(1-methyl-1H-pyrazol-4-yl)-1′,2′-dihydro-3′H-spiro[cyclopropane-1,4′-[2,7]naphthyridin]-3′-one] | >5 | >5
COc1cc(OC)c(F)c(N2Cc3cnc(-c4cn(C)nc4C)cc3N(c3cc(F)cc(C#N)c3)C2=O)c1F [Example 78, 3-(3-(2,6-difluoro-3,5-dimethoxyphenyl)-7-(1,3-dimethyl-1H-pyrazol-4-yl)-2-oxo-3,4-dihydropyrido[4,3-d]pyrimidin-1(2H)-yl)-5-fluorobenzonitrile] | >5 | >3
CCn1cc(N2C(=O)N(c3c(F)c(OC)cc(OC)c3F)Cc3cnc(-c4cn(C)nc4C)cc32)cn1 [Example 131, 3-(2,6-difluoro-3,5-dimethoxyphenyl)-7-(1,3-dimethyl-1H-pyrazol-4-yl)-1-(1-ethyl-1H-pyrazol-4-yl)-3,4-dihydropyrido[4,3-d]pyrimidin-2(1H)-one] | >3 | >10
COc1cc(OC)c(F)c(N2Cc3cnc(-c4cn(C)nc4C)cc3N(c3cn[nH]c3)C2=O)c1F [Example 129, 3-(2,6-difluoro-3,5-dimethoxyphenyl)-7-(1,3-dimethyl-1H-pyrazol-4-yl)-1-(1H-pyrazol-4-yl)-3,4-dihydropyrido[4,3-d]pyrimidin-2(1H)-one] | >5 | >10
